Assay results taken from US9408873B2, “Pharmaceutical composition comprising stem cells treated with NOD2 agonist or culture thereof for prevention and treatment of immune disorders and inflammatory diseases” (KANG STEM BIOTECH CO., LTD., priority 2010, dated 2016).
Entries after “also recorded” stand apart in the source; their conditions may differ.

Columns and labels:
hUCB-MSCs [1] = test: IL-8 production in hUCB-MSCs after stimulation by receptor agonists (ELISA); assay type: cell-based, human; conditions: 24 hours with agonist
Description: After conforming the expression of the receptors of interest in hUCB-MSC in Example 2-1, the functionality of the receptors investigated by monitoring IL-8 production after stimulation by agonists. For this experiment, hUCB-MSCs were cultured at a density of 2×10^4 cells/well in KSFM medium supplemented with 2% FBS in a 96-well plate. After 24 hours of culturing, the cells were treated with the following agonists corresponding to each of the receptors, i.e., Pam3CSK4 (TLR2 agonist, Pam3), LPS (TLR4 agonist), Tri-DAP (NOD1 agonist, T-DAP), and MDP (NOD2 agonist). Then the samples were incubated for additional 24 hours. The supernatant of each culture was collected, centrifuged, and filtered through a 0.2 μm filter. Then, concentrations of IL-8 and PGE2 were measured using an ELISA kit (R&D Systems, Minneapolis, Minn., USA). Ultrapure LPS (E. coli O111:B4), Pam3CSK4, and Tri-DAP were purchased from Invivogen (San Diego, Calif., USA), MDP [Ac-(6-O-stearoyl)-muramyl-Ala-D-Glu-NH2; muramyl dipeptide] was purchased from Bachem (Bubendorf, Switzerland). Recombinant human Interferon-γ was purchased from Peprotech (Rockyhill, N.J., USA).

hUCB-MSCs [2] = test: TGF-β1 production by hUCB-MSCs; assay type: cell-based, human; conditions: 24 hours with agonist
Description: (§1) Soluble factors such as hepatocyte growth factor, TGF-β1, indoleamine 2,3 dioxygenase-1 (IDO-1), nitric oxide (NO), and prostaglandin E2 (PGE2) are the strong candidates for regulating immunosuppression by MSC. In order to determine whether TLR and NLR agonists induce the production of soluble factors including NO, PGE2 and TGF-β1 in hUCB-MSCs, the cells were cultured with Pam3CSK4, LPS, Tri-DAP, and MDP for 24 hours, and culture supernatants were collected. Secretion of the soluble factors was monitored by the method described in Examples 5-1 and 5-2.

hUCB-MSCs [3] = test: PGE2 secretion by hUCB-MSCs (ELISA); assay type: cell-based, human
Description: The hUCB-MSCs (2×10^4 cells/well) were cultured in MSC medium supplemented with 2% FBS in a 96-well plate. After 24 hrs of culturing, the cells were treated with 1 μg/mL Pam3CSK4 (TLR2 agonist), 1 μg/mL LPS (TLR4 agonist), 10 μg/mL Tri-DAP (NOD1 agonist) or 10 μg/mL MDP (NOD2 agonist) and cultured for additional 24 hours, then the culture supernatant of each sample was collected. After centrifugation, the culture supernatants were filtered through a 0.2 μm filter. Then, PGE2 concentration was measured using an ELISA kit (R&D Systems, Minneapolis, Minn., USA) following the manufacture's protocol.
To determine the sustainment time of the effects of MDP treatment, the amount of PEG2 produced was monitored after 1 day-long treatment of hUCB-MSCs with MDP. In this experiment, MDP was removed after 1 day of culturing by removing the culture medium and washing the cells with phosphate buffered saline (PBS) 5 times. Then the amount of PEG2 produced was measured. Meanwhile, cells were treated with MDP by the same method described in Example 5-1, and PGE2 concentration was measured. Also, in order to determine the effects of NOD2, Rip2 and COX-2 on PGE2 expression, the cells were treated with each of the control group of Example 3-3 i.e. siRNA (siCTL), siNOD2, siRip2 and COX-2 inhibitor called indomethacin (Sigma (St. Louis, Mo., USA).
as §1

COX-2 = COX-2 expression in hUCB-MSCs (immunoblot); assay type: cell-based, human; conditions: 24 hours with agonist
Description: Cells were treated with 1 μg/mL Pam3CSK4 (TLR2 agonist), 1 μg/mL LPS (TLR4 agonist), 10 μg/mL Tri-DAP (NOD1 agonist) or 10 μg/mL MDP (NOD2 agonist) and cultured for 24 hours. Then, the collected cells were lysed using 1% Nonidet-P40 buffer containing 2 mM dithiothreitol and protease cocktail (Roche, US). The cell lysates were resolved by 12% SDS-PAGE, and transferred onto a nitrocellulose membrane. Then, immunostaining was performed using primary antibodies (COX-2, GAPDH (Santa Cruz biotechnology, Santa Cruz, Calif., USA)). Thereafter, immunostaining was performed using secondary antibodies, and proteins were detected using an enhanced chemiluminescence (ECL) reagent (Intron Biotechnology).
To investigate a correlation between COX-2 expression and the function of NOD2 and Rip2, cells were first treated with MDP and further treated with siNOD2 and siRip2. Then the COX-2 expression level was examined. Protein expression level was measured by using the method described in Example 5-2, and the method for siRNA treatment was the same as described in Example 3-3.

hMNC [4] = test: IL-10 production by MNC cultured with UCB-MSC supernatant and ConA (ELISA); assay type: cell-based, human
Description: In order to determine the production level of IL-10, hUCB-MSCs (1×10^5 cells/well) were cultured in MSC medium supplemented with 2% FBS in a 24 well plate. About 24 hours later, the cells were treated with siNOD2 or indomethacin (Indo), and further cultured for 24 hours. Then the cells were washed five times, and fresh RPMI was added. After 5 days of culturing, UCB-MSC supernatant (UMS) was obtained. MNCs (1×10^6/well) were cultured with UMS and ConA (Sigma (St. Louis Mo., USA)). After 3 days of culturing, cell supernatant was collected, centrifuged, and filtered through a 0.2 μm filter. Then, IL-10 concentration was measured using an ELISA kit (R&D Systems, Minneapolis, Minn., USA).
PGE2 produced in bone marrow stromal cells is known to take an important role in IL-10 production by host macrophages (Nemeth, K., A. et al., Bone marrow stromal cells attenuate sepsis via prostaglandin E(2)-dependent reprogramming of host macrophages to increase their interleukin-10 production. Nat Med 15:42-49, 2009). MDP induces PGE2 production in hUCB-MSCs, and thus the present inventors examined whether IL-10 production in hMNCs is increased in the presence of MDP-UCM. The experiment was performed by the same method described in Example 5-6.

mouse splenocytes [5] = test: Xenogeneic mouse splenocyte proliferation in hUCB-MSC culture medium; assay type: cell-based
human MNC = test: Human MNC proliferation under direct cell to cell contact with hUCB-MSC; assay type: cell-based; conditions: direct cell to cell interaction
Text: In the present experiment, the inventors investigated whether TLR and NLR agonists enhance the suppressive activity of hUCB-MSC against human […] proliferation. Based on the study that identified the importance of a direct interact ion between MSCs and lymphocytes in inhibition of lymphocyte proliferation by MSCs, the present inventors investigated whether MDP has an effect on the suppressive ability of hUCB-MSCs against MNC proliferation under the conditions where two cell groups are in contact with each other.

mouse splenocytes [6] = test: Mouse splenocyte proliferation cultured with PGE2; assay type: cell-based; conditions: PGE2 at a concentration of 10 ng/mL or higher
Description: (§2) In order to investigate the effect of PGE2 on mononuclear cell (MNC) proliferation, hMNC and mouse splenocytes were cultured with various concentrations of PGE2. The experiment was performed by the same method described in Example 5-5.

hMNC [7] = test: hMNC proliferation cultured with PGE2; assay type: cell-based, human; conditions: PGE2 at a concentration of 10 ng/mL or higher
Description: as §2

MNC = MNC proliferation in culture medium/supernatant of agonist-treated hUCB-MSC; assay type: cell-based, human; conditions: for MNC proliferation in culture medium of agonist-treated hUCB-MSC: hUCB-MSC #618, MNC cultured 3 days
Description: Soluble factors are also known to mediate immunosuppression by MSC. So the present inventors examined whether secretory factors generated by UCB-MSCs have an effect on human MNC proliferation. Culture medium (CM) was prepared, and hUCB-MSCs were co-cultured with the agonist for 24 hours. After washing, the cells were cultured fresh for additional […]. Then, a control group containing culture medium (CM) and sample of hUCB-MSCs treated with agonist (#613) were prepared, and MNCs were cultured in CM containing hUCB-MSCs for 3 days.
To determine whether MDP enhances the immunosuppressive activity of in UCB-MSC, the following experiment was performed. A control group containing culture medium (CM) of hUCB-MSC was prepared and the agonist-treated hUCB-MSCs were collected on the 5th day of culturing. Then, MNC was co-cultured in CM of hUCB-MSC for 3 days more, and after culturing, the level of MNC proliferation was monitored.
Additionally, to investigate the correlation among NOD2, Rip2 and MDP in MNC inhibition, the following experiment was conducted using siRNAs of […] and Rip2 and a control group (siCTL). When the cell density reached 60%, siRNAs were transfected into the cells. The siRIPK2 (M-003602-02) which is the siRNA of receptor-interacting serine-threonine kinase 2 (RIPK2 or receptor interacting kinase protein 2 (Rip2) which is the adaptor of […] and NOD2 and the type of kinase called RICK or CARDIAK (Bertin et al, 1999; Inohara et al, 1999; Ogura et al, 2001b)), siNOD2 (J-011338-07) which is the siRNA of NOD2, and a non-targeting control (siControl #1, D-001810-01) were purchased from Dharmacon (Chicago, Ill., USA). DharmaFECT1 (Dharmacon) was used as a transfection reagent, and siRNA was transfected at a concentration of 100 nmol/L. About 48 hours later, the medium was replaced with the fresh one, and the cells were treated with 10 μg/mL of MDP (NOD2 agonist) for 24 hours, except for a negative control (culture medium of MNC only) and a positive control (medium added with UCB-MSC supernatant (UMS) without agonist).
That is, a medium where MNC was cultured alone (i), and a medium added with UCB-MSC supernatant (UMS) without agonist (ii) were prepared as control groups, and a medium treated with MDP and UMS (iii), a medium treated with MDP, UMS, and control siRNA (siCTL) (iv), a medium treated with MDP, UMS and siNOD2 (v), and a medium treated with MDP, UMS, and siRip2 (vi) were prepared. Thereafter, MNC proliferation was measured by optical density at the wavelength of 450 nm.
In order to investigate the role of PGE2 in inhibition of MNC by hUCB-MSC, MNC proliferation was examined when treated with the MSC supernatant, MDP-treated MSC supernatant, and MDP and indomethacin (COX-2 inhibitor)-treated MSC supernatant. The experiment was performed by the same method described in Example 3.

hMNCs = test: Treg population (CD4, CD25, Foxp3) in hMNCs cultured with UCM, flow cytometry; assay type: cell-based, human
Description: Next, the present inventors investigated the effect of UCM on differentiation of hMNC into regulatory T cells (Treg). For this, hMNCs were cultured with UCM for 5 days, and co-expression of CD4, CD25, and Foxp3 in hMNCs was determined by Flow cytometry.

What does the source list for `CCCCCCCCCCCCCCCCCC(=O)OCC1OC(O)C(NC(C)=O)C(OC(C)C(=O)NC(C)C(=O)NC(CCC(=O)O)C(N)=O)C1O` [MDP, Ac-(6-O-stearoyl)-muramyl-Ala-D-Glu-NH2]?
IL-8 production (hUCB-MSCs [1]): increased IL-8 production in hUCB-MSCs in a dose-dependent manner; TGF-β1 production (hUCB-MSCs [2]): enhanced only by addition of MDP; PGE2 production level after removal of MDP (hUCB-MSCs [3]; MDP removed after 1 day, 5th day of culturing): greater than that in the control group; PGE2 secretion (hUCB-MSCs [3]; hUCB-MSCs, 24 hours with agonist (MDP 10 μg/mL)): significantly enhanced PGE2 secretion; also recorded: enhanced only by addition of MDP; COX-2 expression (COX-2): enhanced COX-2 expression; also recorded: increased; IL-10 production by MNC (hMNC [4]; MNC cultured 3 days with UCB-MSC supernatant and ConA): remarkably increased; proliferation of xenogeneic mouse splenocytes in UCM (mouse splenocytes [5]): this inhibitory effect was enhanced by MDP stimulation; effect of agonist on suppressive activity of hUCB-MSCs against MNC proliferation (human MNC): did not affect the suppressive activity of hUCB-MSCs against MNC proliferation

With `CCCCC[C@H](O)/C=C/[C@H]1[C@H](O)CC(=O)[C@@H]1C/C=C\CCCC(=O)O` [PGE2, (5Z, 11(alpha),13E,15S)-11,15-dihydroxy-9-oxo-prosta-5,13-dien-1-oic acid] as the compound, how does the “proliferation of mouse splenocytes” value (mouse splenocytes [6]) read?
The value was “remarkably inhibited”.

And the “proliferation of hMNC” value (hMNC [7])?
Its value is “remarkably inhibited”.

`C[C@H](N)C(=O)N[C@H](CCC(=O)NC(CCCC(N)C(=O)O)C(=O)O)C(=O)O` (stereo partly shown) [Tri-DAP, Tri-diaminopimelic Acid] was tested. Which IL-8 production (hUCB-MSCs [1]) did it give?
Its IL-8 production is “increased IL-8 production in hUCB-MSCs in a dose-dependent manner”.

And the “MNC proliferation in culture medium of agonist-treated hUCB-MSC” value (from here on “MNC proliferation in culture medium”) (MNC)?
Its value is “this effect was absent”.

And the “MNC proliferation in culture medium” value (MNC; listed as T-DAP)?
The value was “only slightly inhibited”.

What about the “effect of agonist on suppressive activity of hUCB-MSCs against MNC proliferation” value (human MNC) of the same compound?
Its value is “did not affect the suppressive activity of hUCB-MSCs against MNC proliferation”.

What does the source list for `COc1ccc2c(c1)c(CC(=O)O)c(C)n2C(=O)c1ccc(Cl)cc1` [indomethacin]?
effect on the increase in Treg population by MDP-UCM (hMNCs): reversed; effect on MDP-enhanced PGE2 production (hUCB-MSCs [3]; hUCB-MSCs / MDP-UCM): MDP-enhanced PGE2 production was inhibited; effect on the inhibition of MNC proliferation by MDP-treated MSC culture medium (MDP-UCM) (MNC; co-treatment or siRNA of hUCB-MSC): MNC proliferation rate similar to that of the negative control group; also recorded: counteracted; effect on MDP-increased IL-10 production by MNC (hMNC [4]): IL-10 production was suppressed; also recorded: reversed

Which IL-8 production (hUCB-MSCs [1]) does the source give for Pam3CSK4 here?
The IL-8 production was “increased IL-8 production in hUCB-MSCs in a dose-dependent manner”.

What about the “MNC proliferation in culture medium” value (MNC) of the same compound?
Its value is “this effect was absent”.

What about the “MNC proliferation in culture medium” value (MNC; listed as Pam3) of the same compound?
The value was “only slightly inhibited”.

What about the “effect of agonist on suppressive activity of hUCB-MSCs against MNC proliferation” value (human MNC) of the same compound?
Its value is “did not affect the suppressive activity of hUCB-MSCs against MNC proliferation”.
